This is an account of results in PubChem BioAssay (NCI).

Structures are written as SMILES. “And” between values parts separate entries of the source, which are not always exact repeats. Equal values may be shown once.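 In this assay, cells in 96-well plates receive the compound at five concentrations for 48 hours. Endpoints are linearly interpolated between the surrounding concentrations. GI50 marks 50% less growth. TGI is the concentration that stops growth completely.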

Test systems include CAKI-1 renal; EKVX NSCLC; HCT-15 colon; HL-60(TB) leukemia; IGROV1 ovarian; MOLT-4 leukemia; NCI-H23 lung; PC-3 prostate; SF-268 CNS; U251 CNS.
Assay in all cases: inhibition of tumour cell growth, NCI panel, 48 h

In the case of `O=C(O)c1cc(N/C=C2\C(=O)c3ccccc3OC2O)ccc1O` (stereo unspecified), the GI50 in the assay on CAKI-1 renal was 13 µg/mL; in the assay on EKVX NSCLC it was 24.3 µg/mL; with HCT-15 colon, 15.7 µg/mL; in the assay with HL-60(TB) leukemia, 9.18 µg/mL; in the assay with IGROV1 ovarian, 20.6 µg/mL; in the assay with MOLT-4 leukemia, 15.3 µg/mL. Moreover, the GI50 in the assay on NCI-H23 lung was 20.4 µg/mL; in the assay with PC-3 prostate, 29.4 µg/mL; in the assay with SF-268 CNS, 24 µg/mL; in the assay with U251 CNS, 18 µg/mL. The TGI with CAKI-1 renal was 42 µg/mL; in the assay on EKVX NSCLC, 78.5 µg/mL; in the assay with HCT-15 colon, 44.7 µg/mL; in the assay on HL-60(TB) leukemia, > 150 µg/mL; in the assay on IGROV1 ovarian, 61.8 µg/mL; in the assay with MOLT-4 leukemia, 72 µg/mL. Further, the TGI with NCI-H23 lung was determined as 59.6 µg/mL; in the assay on PC-3 prostate it was 120 µg/mL; with SF-268 CNS, 108 µg/mL; in the assay on U251 CNS, 43.6 µg/mL.

As for `C[As](C)Sc1ccnc(S[As](C)C)n1`, the GI50 in the assay on CAKI-1 renal is 4.35 µM; in the assay with EKVX NSCLC it was 11.2 µM; in the assay on HCT-15 colon it was 0.928 µM; in the assay on HL-60(TB) leukemia it was 1.13 µM; with IGROV1 ovarian, 4.73 µM; with MOLT-4 leukemia it was 1.43 µM. Also, the GI50 is 6.79 µM in the assay on NCI-H23 lung, 3.14 µM in the assay with PC-3 prostate, 7.44 µM in the assay with SF-268 CNS and 7.03 µM with U251 CNS. For the same molecule, the TGI in the assay with CAKI-1 renal is 22.9 µM; with EKVX NSCLC it was 35.8 µM; with HCT-15 colon it was 14.7 µM; in the assay on IGROV1 ovarian, > 40.8 µM; in the assay on NCI-H23 lung, > 32 µM; in the assay on PC-3 prostate it was 30.8 µM. Besides, the results for the TGI with SF-268 CNS and with U251 CNS were > 39.7 µM and > 100 µM, respectively.

In the case of `O=C1Nc2cc(Cl)ccc2Oc2cc(Oc3ccccc3)ccc21`, the GI50 in the assay with CAKI-1 renal was 3.81 µM; with EKVX NSCLC, 4.36 µM; in the assay with HCT-15 colon, 3.84 µM; in the assay on HL-60(TB) leukemia, 3.6 µM; in the assay on IGROV1 ovarian it was 5.42 µM; in the assay on MOLT-4 leukemia, 4.78 µM. For the same molecule, the GI50 in the assay with NCI-H23 lung is 3.78 µM; with PC-3 prostate, 4.85 µM; in the assay on SF-268 CNS, 6.33 µM; in the assay on U251 CNS it was 5.26 µM. Also, the TGI with CAKI-1 renal was 38.8 µM; in the assay with EKVX NSCLC it was 37.2 µM; with HCT-15 colon it was > 100 µM; with HL-60(TB) leukemia it was > 100 µM; with IGROV1 ovarian it was 29.9 µM; in the assay with MOLT-4 leukemia, > 100 µM. Moreover, the TGI in the assay with NCI-H23 lung came to 29.9 µM; with PC-3 prostate, 48.4 µM; with SF-268 CNS, 31.6 µM; in the assay with U251 CNS it was 23.8 µM.

For the molecule `NC(=O)c1nnn(Cc2cc(Cl)c(C(=O)c3ccc(Cl)cc3)c(Cl)c2)c1N`, the TGI is 25.5 µM with CAKI-1 renal; > 9.09 µM and 37.5 µM with EKVX NSCLC; > 9.09 µM and 39.7 µM in the assay on HCT-15 colon; > 100 µM in the assay with HL-60(TB) leukemia; > 9.09 µM and 44.2 µM with IGROV1 ovarian; > 90.7 µM in the assay on MOLT-4 leukemia. Moreover, the TGI in the assay on NCI-H23 lung is > 9.09 µM and 43 µM; in the assay on PC-3 prostate, > 50.2 µM; in the assay with SF-268 CNS, > 9.09 µM and 29 µM; in the assay on U251 CNS it was > 9.09 µM and 38.1 µM. For the same molecule, the GI50 in the assay on EKVX NSCLC, in the assay with HCT-15 colon, with HL-60(TB) leukemia, in the assay with IGROV1 ovarian, in the assay on MOLT-4 leukemia and in the assay with NCI-H23 lung was > 9.09 µM each time. The GI50 in the assay on SF-268 CNS and in the assay with U251 CNS was > 9.09 µM throughout.

Take `CS(=O)(=O)N1CCN(Cc2cc3nc(-c4cccc5[nH]ncc45)nc(N4CCOCC4)c3s2)CC1`: the GI50 with CAKI-1 renal is 0.419 µM and 0.209 µM; in the assay with EKVX NSCLC, 0.445 µM and 0.577 µM; in the assay with HCT-15 colon, 0.721 µM and 0.453 µM; in the assay on HL-60(TB) leukemia, 0.121 µM and 0.052 µM; in the assay with IGROV1 ovarian it was 0.0571 µM and 0.0389 µM; in the assay on MOLT-4 leukemia it was 0.315 µM and 0.302 µM. Moreover, the GI50 in the assay with NCI-H23 lung was 1.37 µM and 0.603 µM; with PC-3 prostate, 0.218 µM and 0.26 µM; in the assay on SF-268 CNS it was 1.59 µM and 0.625 µM; in the assay with U251 CNS, 1.05 µM and 0.684 µM. For the same molecule, the TGI was 3.92 µM and > 3.95 µM in the assay on CAKI-1 renal; > 100 µM in the assay on EKVX NSCLC; > 100 µM in the assay on HCT-15 colon; > 100 µM in the assay on HL-60(TB) leukemia; 0.425 µM and 0.301 µM in the assay with IGROV1 ovarian; > 100 µM in the assay on MOLT-4 leukemia. Moreover, the TGI with NCI-H23 lung, in the assay on PC-3 prostate, in the assay on SF-268 CNS and in the assay with U251 CNS was > 100 µM each time.

Turning to `O=C(O)CNC(=O)c1ccccc1O`, the TGI in the assay on CAKI-1 renal, with EKVX NSCLC, in the assay on HCT-15 colon, with HL-60(TB) leukemia, with IGROV1 ovarian and in the assay on MOLT-4 leukemia was > 100 µM each time. In addition, the TGI in the assay on NCI-H23 lung, with PC-3 prostate, with SF-268 CNS and in the assay with U251 CNS was > 100 µM in each case.

Consider `C(=N/Nc1ncnc2nc[nH]c12)/c1ccccn1`, for which the GI50 in the assay with CAKI-1 renal is 0.308 µM; in the assay with EKVX NSCLC it was 0.386 µM; with HCT-15 colon it was 1.11 µM; with HL-60(TB) leukemia it was 1.01 µM; in the assay on IGROV1 ovarian, 2.11 µM; with MOLT-4 leukemia, 0.367 µM. For the same molecule, the GI50 in the assay on NCI-H23 lung was 2.91 µM; in the assay with PC-3 prostate it was 0.786 µM; with SF-268 CNS, 0.342 µM; with U251 CNS it was 0.569 µM. Further, the TGI in the assay on CAKI-1 renal was 2.64 µM; with EKVX NSCLC it was 40.5 µM; in the assay on HCT-15 colon, > 100 µM; in the assay on HL-60(TB) leukemia it was 7.07 µM; with IGROV1 ovarian, 20.9 µM; with MOLT-4 leukemia, > 100 µM. Further, the TGI is > 100 µM in the assay with NCI-H23 lung, > 100 µM in the assay with PC-3 prostate, > 23.7 µM in the assay with SF-268 CNS and > 100 µM in the assay on U251 CNS.

On to `Cc1ccc(Cl)cc1Nc1nc(C(F)(F)F)ccc1C(=O)N/N=C/c1c(Cl)cccc1Cl`, for which the GI50 with CAKI-1 renal is 0.495 µM; in the assay on EKVX NSCLC, 0.507 µM; with HCT-15 colon it was 0.41 µM; with HL-60(TB) leukemia, 0.863 µM; with IGROV1 ovarian, 0.994 µM; in the assay with MOLT-4 leukemia, 0.596 µM. Besides, the GI50 in the assay with NCI-H23 lung was 1.55 µM; in the assay with PC-3 prostate, 0.554 µM; in the assay on SF-268 CNS it was 0.623 µM; with U251 CNS, 0.471 µM. Besides, the TGI is 3.49 µM in the assay on CAKI-1 renal; 3.71 µM with EKVX NSCLC; 12.8 µM in the assay with HCT-15 colon; 3.36 µM with HL-60(TB) leukemia; > 68.9 µM with IGROV1 ovarian; 4.93 µM with MOLT-4 leukemia. The TGI in the assay on NCI-H23 lung is 7.39 µM; with PC-3 prostate, > 34.3 µM; in the assay with SF-268 CNS, 13.4 µM; with U251 CNS, 5.78 µM.

`CC1(C)CC(=O)C2=C(C1)NC(SSC1=C(C#N)C(c3ccc(Br)cc3)C3=C(CC(C)(C)CC3=O)N1)=C(C#N)C2c1ccc(Br)cc1` (stereo unspecified): the GI50 in the assay with CAKI-1 renal is > 150 µg/mL; in the assay with EKVX NSCLC, > 150 µg/mL; in the assay on HCT-15 colon it was 88.6 µg/mL; in the assay on HL-60(TB) leukemia it was 31.2 µg/mL; with IGROV1 ovarian it was > 150 µg/mL; in the assay with MOLT-4 leukemia, 41.9 µg/mL. Further, the GI50 in the assay on NCI-H23 lung is > 150 µg/mL; with PC-3 prostate, 91.4 µg/mL; in the assay on SF-268 CNS, > 150 µg/mL; in the assay with U251 CNS it was > 150 µg/mL. Moreover, the TGI in the assay with CAKI-1 renal was > 100 µM and 150 µg/mL; in the assay with EKVX NSCLC it was > 100 µM and 150 µg/mL; with HCT-15 colon it was > 100 µM and 150 µg/mL; with HL-60(TB) leukemia, > 100 µM and 77.1 µg/mL; with IGROV1 ovarian, > 100 µM and 150 µg/mL; in the assay on MOLT-4 leukemia it was > 100 µM and 150 µg/mL. Moreover, the TGI with NCI-H23 lung is > 100 µM and 150 µg/mL; in the assay on PC-3 prostate it was > 100 µM and 150 µg/mL; in the assay on SF-268 CNS, > 100 µM and 150 µg/mL; with U251 CNS, > 100 µM and 150 µg/mL.

In the case of `COc1c(OC(C)=O)c(OC(C)=O)cc2c1-c1ccc(OC)c(=O)cc1C(NC(C)=O)CC2` (stereo unspecified), the TGI was > 100 µM with CAKI-1 renal; > 100 µM in the assay on EKVX NSCLC; > 70 µM in the assay with HCT-15 colon; < 0.0103 µM with HL-60(TB) leukemia; > 100 µM with IGROV1 ovarian; > 85.8 µM in the assay with MOLT-4 leukemia. The TGI with NCI-H23 lung was 5.24 µM; in the assay on PC-3 prostate it was > 100 µM; in the assay on SF-268 CNS, 54.4 µM; in the assay on U251 CNS, 9.24 µM.

Turning to `Fc1ccc(-c2ncn(C3CCNCC3)c2-c2ccnc(Oc3ccccc3)n2)cc1`, the GI50 in the assay on CAKI-1 renal is 18.4 µM; in the assay on EKVX NSCLC it was > 25 µM; in the assay with HCT-15 colon it was > 22.8 µM; with HL-60(TB) leukemia, > 16.6 µM; in the assay on IGROV1 ovarian, 13.5 µM; in the assay on MOLT-4 leukemia it was 23.4 µM. The GI50 was > 25 µM with NCI-H23 lung, > 25 µM in the assay on PC-3 prostate, > 25 µM in the assay with SF-268 CNS and 15.2 µM with U251 CNS. In addition, the TGI in the assay with CAKI-1 renal, in the assay on EKVX NSCLC, in the assay with HCT-15 colon, in the assay on HL-60(TB) leukemia, in the assay with IGROV1 ovarian and in the assay with MOLT-4 leukemia was > 25 µM each time. Besides, the TGI in the assay on NCI-H23 lung, in the assay with PC-3 prostate, in the assay on SF-268 CNS and with U251 CNS was > 25 µM in each case.

Regarding `COc1ccc(-c2cn(-c3ccc(Cl)cc3)c(=S)[nH]2)cc1OC`, the GI50 in the assay on CAKI-1 renal is 3.24 µM; in the assay with EKVX NSCLC, 13.2 µM; in the assay on HCT-15 colon, 5.22 µM; with HL-60(TB) leukemia it was 3.34 µM; with IGROV1 ovarian, 7.08 µM; in the assay with MOLT-4 leukemia, > 100 µM. The GI50 in the assay on NCI-H23 lung was > 100 µM; with PC-3 prostate, 65.5 µM; in the assay with SF-268 CNS, 24.6 µM; in the assay with U251 CNS, 12.3 µM. For the same molecule, the TGI with CAKI-1 renal is > 100 µM; in the assay on EKVX NSCLC, > 100 µM; in the assay with HCT-15 colon, > 100 µM; with HL-60(TB) leukemia, 9.32 µM; with IGROV1 ovarian, > 100 µM; in the assay with MOLT-4 leukemia, > 100 µM. Moreover, the TGI in the assay with NCI-H23 lung, in the assay with PC-3 prostate, in the assay on SF-268 CNS and in the assay with U251 CNS was > 100 µM throughout.
